# Laboratory results: patent publication US20120328569A1, “INHIBITORS OF HEPATITIS C VIRUS NS5B POLYMERASE” (priority 2010, published 2012)
# Test system: HCV genotype 1b replicon
# Test: HCV replicon assay, cell ELISA with antibody to replicon-encoded NS3/4A (genotype 1b replicon)
# Format: cell-based, hepatitis C virus
# Details: Hepatitis C virus, 96 h, read-out: 1b IC50(nM), HCV genotype 1b replicon; 96 hours incubation; NS3/4A cell ELISA
# Procedure, shortened: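 An ELISA on lysed cells, using an antibody against NS3/4A protease, served as the proxy for replicon RNA. Cells had first been exposed for 96 h to serially diluted compound in G418-free conditions. Percent of DMSO control was fitted with a four-parameter function to give IC50.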
row,Structure (SMILES),IC50
1,CNC(=O)c1c(-c2ccc(F)cc2)oc2cc(N(CCC(O)CO)S(C)(=O)=O)c(-c3ccc(OC)c(-c4nc5c(F)cccc5o4)c3)cc12 (centres unmarked) [Example 784],3.61 nM
2,CNC(=O)c1c(-c2ccc(F)cc2)oc2cc(N(C3CCOC3)S(C)(=O)=O)c(-c3ccc(OC)c(-c4nc5c(F)cccc5o4)c3)cc12 (centres unmarked) [Example 726],5.54 nM
3,CNC(=O)c1c(-c2ccc(F)cc2)oc2cc(N(C)S(C)(=O)=O)c(C#Cc3ccccc3)cc12 [Example 547],23.2 nM
4,CNC(=O)c1c(-c2ccc(F)cc2)oc2cc(N(C)S(C)(=O)=O)c(-c3cc(C#N)cc(-c4cc5ccccc5[nH]4)c3)cc12 [Example 558],5.81 nM
5,CNC(=O)c1c(-c2ccc(F)cc2)oc2cc(N(CCC(C)(C)F)S(C)(=O)=O)c(-c3cccc(-c4nc5ncccc5o4)c3)cc12 [Example 797],2.43 nM
6,CNC(=O)c1c(-c2ccc(F)cc2)oc2cc(N(CCC(O)CO)S(C)(=O)=O)c(-c3ccc(OC)c(-c4nc5c(F)cc(F)cc5o4)c3)cc12 (centres unmarked) [Example 785],3.55 nM
7,CNC(=O)c1c(-c2ccc(F)cc2)oc2cc(N(CC(O)Cn3ccnc3)S(C)(=O)=O)c(-c3ccc(OC)c(-c4nc5c(F)cccc5o4)c3)cc12 (centres unmarked) [Example 825],8.88 nM
8,CNC(=O)c1c(-c2ccc(F)cc2)oc2cc(N(CC3CCS(=O)(=O)C3)S(C)(=O)=O)c(-c3ccc(OC)c(-c4nc5c(F)cc(F)cc5o4)c3)cc12 (centres unmarked) [Example 718],3.9 nM
9,CNC(=O)c1c(-c2ccc(F)cc2)oc2cc(N(C)S(C)(=O)=O)c(-c3ccc(OC)c(-c4nc5ccc(-c6cccnc6)cc5o4)c3)cc12 [Example 659],8.62 nM
10,CNC(=O)c1c(-c2ccc(F)cc2)oc2cc(N(CCC(O)CC#N)S(C)(=O)=O)c(-c3ccc(OC)c(-c4nc5c(F)cccc5o4)c3)cc12 (centres unmarked) [Example 821],3.27 nM
11,CNC(=O)c1c(-c2ccc(F)cc2)oc2cc(N(CC(F)F)S(C)(=O)=O)c(-c3ccc(OC)c(-c4nc5ncccc5o4)c3)cc12 [Example 877],5.1 nM
12,CNC(=O)c1c(-c2ccc(F)cc2)oc2cc(N(C)S(C)(=O)=O)c(-c3ccc4c(c3)-c3c(Cl)c5ccccc5n3C(C3CC3)O4)cc12 (centres unmarked) [Example 588],50.4 nM
13,CNC(=O)c1c(-c2ccc(F)cc2)oc2cc(N(C)S(C)(=O)=O)c(-c3ccc(OC)c(-c4nc5cccc(C#N)c5o4)c3)cc12 [Example 858],2.8 nM
14,CNC(=O)c1c(-c2ccc(F)cc2)oc2cc(N(C)S(C)(=O)=O)c(-c3ccc(CC#N)c(-c4nc5c(F)cccc5o4)c3)cc12 [Example 429],4.91 nM

# Same assay, conditions: Hepatitis C virus, 96 h, read-out: Replicon 1b IC50 (nM), HCV genotype 1b replicon cells, 96 hours incubation, NS3/4A ELISA readout
row,Structure (SMILES),IC50
1,CNC(=O)c1c(-c2ccc(F)cc2)oc2cc(N(C)S(C)(=O)=O)c(-c3cc(F)cc(-c4nc5ccc(OC)nc5[nH]4)c3)cc12 [Example 306],28.8 nM
2,CNC(=O)c1c(-c2ccc(F)cc2)oc2cc(N(C)S(C)(=O)=O)c(-c3ccc(OC)c(-c4nc5cccnc5o4)c3)cc12 [Example 225],3.6 nM
3,CNC(=O)c1c(-c2ccc(F)cc2)oc2cc(N(C)S(C)(=O)=O)c(-c3ccc(OC(C)C)c(-c4nc5ccccc5o4)c3)cc12 [Example 193],11.6 nM
4,"CNC(=O)c1c(-c2ccc(F)cc2)oc2cc(N3C(=O)O[C@H](c4ccccc4)[C@@H]3C)c(-c3ccccc3)cc12 [Example 77, 2-(4-fluorophenyl)-N-methyl-6-[(4S,5R)-4-methyl-2-oxo-5-phenyl-1,3-oxazolidin-3-yl]-5-phenyl-1-benzofuran-3-carboxamide]",101 nM
5,CNC(=O)c1c(-c2ccc(F)cc2)oc2cc(N(C)S(C)(=O)=O)c(-c3cc(OC)c(OC)c(-c4nc5cccnc5o4)c3)cc12 [Example 235],4 nM
6,CNC(=O)c1c(-c2ccc(F)cc2)oc2cc(N(C)S(C)(=O)=O)c(-c3ccc(OC)c(-c4nc5cccc(Cl)c5o4)c3)cc12 [Example 189],1.9 nM
7,CNC(=O)c1c(-c2ccc(F)cc2)oc2cc(N(C)S(C)(=O)=O)c(-c3ccc(F)c(-c4nc5cccnc5[nH]4)c3)cc12 [Example 308],2.5 nM
8,CNC(=O)c1c(-c2ccc(F)cc2)oc2cc(N(C)S(C)(=O)=O)c(-c3cc(-c4nc5ccncc5[nH]4)ccc3F)cc12 [Example 335],26.4 nM
9,CNC(=O)c1c(-c2ccc(F)cc2)oc2cc(N(C)S(C)(=O)=O)c(-c3cc(OC)cc(-c4nc5cccnc5s4)c3)cc12 [Example 249],2.2 nM
10,"CONC(=O)c1c(-c2ccc(F)cc2)oc2cc(N(C)S(C)(=O)=O)c(-c3ccc(F)cc3)cc12 [Example 96, 2,5-bis(4-fluorophenyl)-N-methoxy-6-[methyl (methylsulfonyl)amino]-1-benzofuran-3-carboxamide]",1230 nM
11,CNC(=O)c1c(-c2ccc(F)cc2)oc2cc(N(C)S(C)(=O)=O)c(-c3ccc(F)c(-c4nc5ccc(F)cc5s4)c3)cc12 [Example 293],8.6 nM
12,CNC(=O)c1c(-c2ccc(F)cc2)oc2cc(N(C)S(C)(=O)=O)c(-c3ccc(OC)c(-c4nc5cccnc5s4)c3)cc12 [Example 271],1.5 nM
13,CNC(=O)c1c(-c2ccc(F)cc2)oc2cc(N(C)S(C)(=O)=O)c(-c3cccc(-c4nc5cccc(C#N)c5s4)c3)cc12 [Example 295],4.1 nM
14,"CNC(=O)c1c(-c2ccc(F)cc2)oc2cc(N(C)S(C)(=O)=O)c(-c3cccc(-c4cn5ccccc5n4)c3)cc12 [Example 141, 2-(4-fluorophenyl)-5-[3-(imidazo[1,2-a]pyridin-2-yl)phenyl]-N-methyl-6-[methyl (methylsulfonyl)amino]-1-benzofuran-3-carboxamide]",3 nM
15,"CONC(=O)c1c(-c2ccc(F)cc2)oc2cc(N(C)S(C)(=O)=O)c(-c3cccc(F)c3)cc12 [Example 95, 5-(3-fluorophenyl)-2-(4-fluorophenyl)-N-methoxy-6-[methyl (methylsulfonyl)amino]-1-benzofuran-3-carboxamide]",130 nM
16,CNC(=O)c1c(-c2ccc(F)cc2)oc2cc(N(C)S(C)(=O)=O)c(-c3cc(F)c(F)c(-c4nc5ccccc5o4)c3)cc12 [Example 194],4.2 nM

row,Structure (SMILES),IC50
1,CNC(=O)c1c(-c2ccc(F)cc2)oc2cc(N(C)S(C)(=O)=O)c(-c3cccc(-c4nc5cnccc5s4)c3)cc12 [Example 262],5 nM
2,CNC(=O)c1c(-c2ccc(F)cc2)oc2cc(N(C)S(C)(=O)=O)c(-c3ccc(OC)c(-c4nc5ncccc5o4)c3)cc12 [Example 238],2.9 nM
3,"CONC(=O)c1c(-c2ccc(F)cc2)oc2cc(N(C)S(C)(=O)=O)c(-c3ccccc3F)cc12 [Example 90, 5(2-fluorophenyl)-2-(4-fluorophenyl)-N-methoxy-6-[methyl(methylsulfonyl)amino]-1-benzofuran-3-carboxamide]",197 nM
4,"CNC(=O)c1c(-c2ccc(F)cc2)oc2cc(N(C)S(C)(=O)=O)c(-c3ccccc3N(C)S(C)(=O)=O)cc12 [Example 83, 2-(4-fluorophenyl)-N-methyl-6-[methyl (methylsulfonyl)amino]-5-{2-[methyl (methylsulfonyl)amino]phenyl}-1-benzofuran-3-carboxamide]",232 nM
5,CNC(=O)c1c(-c2ccc(F)cc2)oc2cc(N(C)S(C)(=O)=O)c(-c3cc(-c4nc5cccnc5s4)ccc3OC)cc12 [Example 250],5.1 nM
6,"CONC(=O)c1c(-c2ccc(F)cc2)oc2cc(N(C)S(C)(=O)=O)c(-c3ccc(OC)cc3)cc12 [Example 98, 2-(4-fluorophenyl)-N-methoxy-5-(4-methoxyphenyl)-6-[methyl (methylsulfonyl)amino]-1-benzofuran-3-carboxamide]",72 nM
7,CNC(=O)c1c(-c2ccc(F)cc2)oc2cc(N(C)S(C)(=O)=O)c(-c3ccc(OC)c(-c4nc5cc(F)cc(F)c5o4)c3)cc12 [Example 410],0.5 nM
8,"CNC(=O)c1c(-c2ccc(F)cc2)oc2cc(N(CCO)S(C)(=O)=O)c(-c3ccccc3)cc12 [Example 2, 2-(4-fluorophenyl)-6-[(2-hydroxyethyl) (methylsulfonyl)amino]-N-methyl-5-phenyl-1-benzofuran-3-carboxamide]",114 nM
9,CNC(=O)c1c(-c2ccc(F)cc2)oc2cc(N(C)S(C)(=O)=O)c(-c3ccc(OC)c(-c4nc5ccc(Cl)cc5o4)c3)cc12 [Example 188],5.1 nM
10,CNC(=O)c1c(-c2ccc(F)cc2)oc2cc(N(C)S(C)(=O)=O)c(-c3cccc(-c4nc5c(C)cccc5[nH]4)c3)cc12 [Example 303],1.8 nM
11,"CNC(=O)c1c(-c2ccc(F)cc2)oc2cc(N(C)S(C)(=O)=O)c(-c3cccc(CNS(=O)(=O)c4ccccc4)c3)cc12 [Example 103, 2-(4-fluorophenyl)-N-methyl-6-[methyl(methylsulfonyl)amino]-5-(3-{[(phenylsulfonyl)amino]methyl}phenyl)-1-benzofuran-3-carboxamide]",< 8 nM
12,CNC(=O)c1c(-c2ccc(F)cc2)oc2cc(N(C)S(C)(=O)=O)c(-c3ccc(OC(F)(F)F)c(-c4nc5ncccc5o4)c3)cc12 [Example 206],2.1 nM
13,"CNC(=O)c1c(-c2ccc(F)cc2)oc2cc(N(C)S(C)(=O)=O)c(-c3cccc(-c4nnn(CC(=O)O)n4)c3)cc12 [Example 140, [5-(3-{2-(4-fluorophenyl)-3-(methylcarbamoyl)-6-[methyl (methylsulfonyl)amino]-1-benzofuran-5-yl}phenyl)-2H-tetrazol-2-yl]acetic acid]",1190 nM
14,"CCN(c1cc2oc(-c3ccc(F)cc3)c(C(=O)NOC)c2cc1-c1ccccc1)S(C)(=O)=O [Example 9, 6-[ethyl (methylsulfonyl)amino]-2-(4-fluorophenyl)-N-methoxy-5-phenyl-1-benzofuran-3-carboxamide]",99 nM
15,CNC(=O)c1c(-c2ccc(F)cc2)oc2cc(N(C)S(C)(=O)=O)c(-c3ccc(OC)c(-c4nc5cc(F)ccc5o4)c3)cc12 [Example 404],2.6 nM
16,CNC(=O)c1c(-c2ccc(F)cc2)oc2cc(N(C)S(C)(=O)=O)c(-c3cccc(-c4nc5ccccc5o4)c3)cc12 [Example 156],6.9 nM

# Same assay, conditions: read-out: 1b IC50; HCV genotype 1b replicon; 96 hours incubation; NS3/4A cell ELISA
row,Structure (SMILES),IC50
1,CNC(=O)c1c(-c2ccc(F)cc2)oc2cc(N(CCF)S(C)(=O)=O)c(-c3cccc(-c4nc5ncccc5o4)c3)cc12 [Example 867],1.8 nM
